Where two headings read alike, the source gives them in different places.

Series [1] deals with P388 murine leukemia cells. The experiment in a line: In vitro cytotoxicity, continuous (48-hour) exposure of P388 cells. It counts as cell-based. To be noted: Mus musculus, read-out: in vitro cytotoxicity IC50, cont. exp. A digest of the protocol:
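For continuous exposure, log-phase P388 murine leukemia cells were co-incubated with a range of compound concentrations for 48 hours and total cells counted on a Coulter counter. For one-hour exposure, survival was scored as soft-agar colonies after 7-10 days at 37° C and 5% CO2. Survival is expressed relative to untreated control.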

Series [2] is described as follows: In vivo antitumor assay, MXI(src). Further details: species or system mice. To be noted: mouse, in vivo, drug ip. The source says: (§1) Mice: Inbred: C3H/He and NCR-nu; and Hybrids: B6D2F1 (C57BL/6 females×DBA/2 males, CD2F1 (Balb/c females×DBS/2 males) and B6C3fl (C57BL/6×C3H) were bred at Wayne State University from strains obtained from the Frederick Cancer Research Facility, Frederick, Maryland or purchased from commercial suppliers.
(§2) Tumors: Murine Tumor: P388 and an adriamycin-resistant (ADR) subline P388/ADR leukemia and the following transplantable solid tumors of mice were used for in vivo testing: B16 melanoma (B16), pancreatic ductal adenocarcinoma No. 03 (Pane 03), colon adenocarcinoma No. 38 (colo 38), lung carcinoma No. 12 (LC 12), mammary ductal adenocarcinoma No. 16/C (Mam16C) and an adriamycin-resistant subline Mam16C/ADR. Human tumor: A single human tumor, mammary carcinoma MX-1 was used for in vivo testing. All tumors are in the Developmental Therapeutics Program frozen tumor respository, maintained by the Biological Testing Branch, Frederick Maryland. Each has a detailed description, code identification number, and list of references at the National Tumor Repository. Murine tumors were maintained in the mouse strain of origin and were transplanted in the appropriate F1 hydrid (or the strain of origin) for therapy trials. Human mammary carcinoma MX-1 (MX1) was maintained as a subcutaneous implant in either athymic Swiss (Cr: NIH(S)-nu) or athymic random bred (NCR-nu) mice and transplanted in NCR-nu for therapy trials.
(§3) For P388 and P388/ADR leukemia studies the tumor cells were implanted either interperitoneally (IP) or intravenously (IV) on day zero and treatment was started on day one. For B16 melanoma (B16) studies, the tumor cells were implanted IP on day zero and treatment was started on day one. Titered controls were also included to facilitate the calculation of tumor cell kill. For mammary carcinoma MX-1 studies, tumors were implanted with 1) subcutaneously (sc) (14-mg fragment of sc donor tumor) in the axillary region or 2) under the subrenal capsule (SRC) (10×10×10 ocular micrometer unit fragment of sc donor tumor).
(§4) Quantitative end points used to assess antitumor activity included % Increased Life Span (% ILS), Tumor Cell Kill (Log10 kill), and Tumor Growth Inhibition (T/C). Long Term Survivors (45 or 60 day) were excluded from calculations of %ILS and Tumor Cell Kill.
(§5) Tumors were measured with a caliper once or twice weekly (as needed) until either tumors exceeded 1600 mg or cure was assured. Tumor weights were estimated from two-dimensional measurements: Tumor Weight (mg)=(a×b^2) / 2, where a and b are the tumor length and width (ram) respectively. Measurements were carried out simultaneously in both treatment and control groups. When the control group tumors reached approximately 750-1500 mg in size (median of group), the median tumor weight of each group was determined (including zeros). The T/C value in percent is an indication of antitumor effectiveness. The % T/C was calculated from the following formula for solid murine tumor models: [formula] where T and C are median tumor weights of the treatment and control groups, respectively. […] A T/C value <10% is indicative of a high degree of antitumor activity and is the level used by National Cancer Institute to justify further development if other requirements are met (termed DN-2 level activity). By convention the T/C value for the mammary carcinoma MX-1 models is calculated by the parameter of change in tumor weight . The % T/C was calculated from the following formula for MX-1 models [formula] where ΔT and ΔC are the change in mean tumor weight of the test and control groups, respectively, and T (initial) is the initial mean tumor weight of the test group. […] A reproducible % T/C ≤10 is considered significant activity.

The next series has as its system mammary carcinoma MX-1. The experiment in a line: In vivo antitumor assay, MXI(src). Also noted: species or system mice. The following applies: drug ip, qd 1,5,9, exp SD-18, change in tumor weight.
From the text: as §1, §2, §3, §4, §5

Series [3] in a line: In vivo antitumor assay, Panc03(sc). Further details: species or system mice. The following applies: mouse, in vivo.
From the text: as §1, §2
Chemotherapy: For pancreatic ductal adenocarcinoma No. 3, colon adenocarcinoma No. 38 (colo 38), lung carcinoma No. 12 LC 12) and both adriamycin-sensitive (RP) and-resistant (ADR) mammary ductal adenocarcinoma No. 16 (Mam16) tumors, bilateral tumor implants were used to help ensure a more uniform tumor burden per mouse (thus reducing the requirement for greater numbers of mice per group). The animals necessary to begin an experiment were pooled, implanted bilaterally s.c. on day zero with 30-60 mg tumor fragments using a 12-gauge trocar, and again pooled before randomization to the various treatment and control groups. Chemotherapy was started within three days after tumor implantation while the number of cells per mouse was relatively small (1×10^7 -1×10^8 cells).
as §4
The log10 cell kill was calculated from the following formula: [formula] where T-C is the tumor difference in the median day of death between the treated (T) and the control (C) groups and Td is the tumor doubling time (in days), the latter estimated from the best fit straight line from a log-linear growth plot of the control-group tumors in exponential growth. The conversion of the T-C values to log10 cell kill is possible because the Td for tumors regrowing post-treatment approximated the Td values of the tumors in untreated control mice.
Tumors were measured with a caliper once or twice weekly (as needed) until either tumors exceeded 1600 mg or cure was assured. Tumor weights were estimated from two-dimensional measurements: Tumor Weight (mg)=(a×b^2) / 2, where a and b are the tumor length and width (ram) respectively. Measurements were carried out simultaneously in both treatment and control groups. When the control group tumors reached approximately 750-1500 mg in size (median of group), the median tumor weight of each group was determined (including zeros). The T/C value in percent is an indication of antitumor effectiveness. The % T/C was calculated from the following formula for solid murine tumor models: [formula] where T and C are median tumor weights of the treatment and control groups, respectively. A T/C equal to or less than 42% is considered significant antitumor activity. […]

The mark [4] stands for this setting: P388, continuous exposure (48-hour).

The term IC50 denotes the concentration needed to halve the response being measured. For the compound `Cc1cc(-c2c(F)cc3c4nn(CCN(C)C)c(=O)c-4cn(C4CC4)c3c2F)cc(C)n1.O=C(O)/C=C/C(=O)O` [Example 1, 5-Cyclopropyl-6,8-difluoro-2,5-dihydro-2-[2-(dimethylamino)-ethyl]-7-(2,6-dimethyl-4-pyridinyl)-3H-pyrazolo[4,3-c]quinolin-3-one (E)-2-butendioate (1:1)], the IC50 in series [1] (P388, 48 h) was 40 nM. Moreover, the MTD in series [2] (qd 1,5,9, exp SD-18) turned out to be 52 mg/kg; in series [3] (iv, Panc03(sc), drug iv, qd 3,4, exp 1005A, read-out: MTD) it was 52 mg/kg; in series [3] (iv, Panc03(sc), drug iv, qd 3,6,9, exp 1146, read-out: MTD) it was 34 mg/kg; in series [3] (iv, Panc03(sc), drug iv, qd 3, exp 895A, read-out: MTD), 35 mg/kg; in series [3] (iv, Panc03(sc), drug iv, qd 3-9, exp 910, read-out: MTD), 45 mg/kg. The compound further returned a T/C % in the series with mammary carcinoma MX-1 of 6%.
For the compound `Cc1cc(-c2c(F)cc3c4nn(CCCN(C)C)c(=O)c-4cn(C4CC4)c3c2F)cc(C)n1` [Example 14], in series [1] (setting [4]), the IC50 came to 380 nM. The MTD in series [3] (iv, MTD) came to 107 mg/kg.
In the case of `Cc1cc(-c2c(F)cc3c4nn(CCNCCO)c(=O)c-4cn(C4CC4)c3c2F)cc(C)n1` [Example 17], the IC50 in series [1] (setting [4]) worked out at 1200 nM. Also, the MTD in series [3] (MTD) was determined as 1410 mg/kg.
Turning to `Cc1cc(-c2c(F)cc3c4nn([C@H]5CC[C@@H](N(C)C)CC5)c(=O)c-4cn(C4CC4)c3c2F)cc(C)n1` [Example 51a], the MTD in series [2] (qd 1,5,9, exp SD-18, MTD not achieved, maximum dose tested) was above 23 mg/kg; in series [3] (iv, MTD), 63 mg/kg. Besides, the T/C % in the series with mammary carcinoma MX-1 is listed as 5%.
As for `Cc1cc(-c2c(F)cc3c4nn([C@H]5CC[C@H](N(C)C)CC5)c(=O)c-4cn(C4CC4)c3c2F)cc(C)n1` [Example 51b], the MTD in series [2] (qd 1,5,9, exp SD-18) was 99 mg/kg; in series [3] (MTD), above 390 mg/kg. In the series with mammary carcinoma MX-1, this compound had a T/C % of 2%.
In turn, `Cc1cc(-c2c(F)cc3c4nn([C@H]5CC[C@@H](N)CC5)c(=O)c-4cn(C4CC4)c3c2F)cc(C)n1` [Example 56a, 2-(Cis-4-Aminocyclohexyl)-5-cyclopropyl-6,8-difluoro-2,5-dihydro-7-(2,6-dimethyl-4-pyridinyl)-3H-pyrazolo-[4,3-c]quinolin-3-one] returned an MTD in series [3] (iv, MTD) of 110 mg/kg.

Values taken from patent US5334595A, “Pyrazoloquinolones as anticancer agents” (priority 1992, dated 1994).
